Experimental data published in the NIST ThermoML archive (doi:10.1021/je0601816).

Assay: xn = mol fraction of the nth substance listed
Settings: 100 kPa, Liquid, Taylor dispersion method, x1 = 0

| Structure (SMILES) | binary diffusion coefficient (273.2 K) [m2/s] | binary diffusion coefficient (293.2 K) [m2/s] | binary diffusion coefficient (298.2 K) [m2/s] | binary diffusion coefficient (313.2 K) [m2/s] | binary diffusion coefficient (333.2 K) [m2/s] | binary diffusion coefficient (353.2 K) [m2/s] |
| --- | --- | --- | --- | --- | --- | --- |
| O=C[C@H](O)[C@@H](O)[C@@H](O)[C@H](O)CO [(+)-galactose] + O | 3.19e-10 | 6.25e-10 | 7.06e-10 | 1.01e-09 | 1.51e-09 | 2.17e-09 |
| O=C[C@@H](O)[C@@H](O)[C@H](O)[C@H](O)CO [D-mannose] + O | 3.34e-10 | 6.2e-10 | 7.04e-10 | 1.02e-09 | 1.59e-09 | 2.16e-09 |
| O=C[C@H](O)[C@@H](O)[C@H](O)[C@H](O)CO [D-glucose] + O | 3.23e-10 | 6.05e-10 | 6.76e-10 | 9.97e-10 | 1.49e-09 | 2.13e-09 |
| O=C[C@H](O)[C@@H](O)[C@H](O)CO [D-xylose] + O | 3.48e-10 | 6.65e-10 | 7.69e-10 | 1.11e-09 | 1.64e-09 | 2.33e-09 |
| O=C[C@@H](O)[C@H](O)[C@H](O)CO [D-(-)-arabinose] + O | 3.59e-10 | 6.82e-10 | 7.73e-10 | 1.11e-09 | 1.67e-09 | 2.37e-09 |
| OC[C@H]1O[C@@](CO)(O[C@H]2O[C@H](CO)[C@@H](O)[C@H](O)[C@H]2O)[C@@H](O)[C@@H]1O [D-sucrose] + O | 2.55e-10 | 4.87e-10 | 5.46e-10 | 7.92e-10 | 1.17e-09 | 1.69e-09 |
